US8507756B2, “Plant protection” (Plant Bioscience Limited, priority 2007, dated 2013)

System: Manduca sexta (tobacco hornworm)
Experiment: JA seed treatment, tomato plants challenged with Manduca sexta caterpillars
Format: in vivo
Settings: tomato cv. Carousel, seed treatment 1.5 mM JA, 4 days feeding
Method: Tomato, pepper, maize and wheat seeds were treated with 3 mM JA or 1.5 mM JA solutions or with 3 mM methyl jasmonate (MeJA) or with deionised water containing 42.8 mM ethanol (control) by full submersion of up to 40 seeds in a Petri dish of solution wrapped in foil for a period of 24 hours at 4° C. in a fridge. A temperature of 4° C. was used both to prevent degradation of the jasmonic acid solutions and to prevent germination of the seeds.
Tomato plants were then challenged with Tetranychus urticae (two-spotted spider mite) which were allowed to feed for 9 days, Manduca sexta (tobacco hornworm) caterpillars which were allowed to feed for 4 days or Myzus persicae (aphid), which were allowed to feed for 10 or 12 days. In each case these organisms were restricted to the plant on which they had originally been placed. Pepper plants were challenged with Myzus persicae (aphid), which were allowed to feed for 2 weeks. […]
The effect of Manduca sexta or Spodoptera exempta on plants was determined by measurement of the leaf area eaten, measured using a leaf area meter.
Seeds of a UK commercial F1 hybrid tomato variety (cv. Carousel) were treated with 1.5 mM jasmonic acid (JA), and plants grown in conditions appropriate to this crop (as described under Example 1). […] Caterpillars were allowed to feed on the plants for four days and the area of grazed leaves was then measured. […]

SMILES: CC/C=C\C[C@H]1C(=O)CC[C@@H]1CC(=O)O [JA, jasmonic acid]
- Caterpillar growth, less than those feeding on controls: 20%
- Leaf area remaining after grazing, compared with controls (challenged 8 weeks after seed treatment): significantly higher
